# Article PMC7700572, “Synthesis, Kinetic and Conformational Studies of 2-Substituted-5-(β-D-glucopyranosyl)-pyrimidin-4-ones as Potential Inhibitors of Glycogen Phosphorylase” (Molecules, 2020)
# Target: T1, rabbit muscle glycogen phosphorylase (RMGP) (Oryctolagus cuniculus, UniProt P00489)
# T1 construct: gene PYGM
# T1 sequence (P00489 2-843): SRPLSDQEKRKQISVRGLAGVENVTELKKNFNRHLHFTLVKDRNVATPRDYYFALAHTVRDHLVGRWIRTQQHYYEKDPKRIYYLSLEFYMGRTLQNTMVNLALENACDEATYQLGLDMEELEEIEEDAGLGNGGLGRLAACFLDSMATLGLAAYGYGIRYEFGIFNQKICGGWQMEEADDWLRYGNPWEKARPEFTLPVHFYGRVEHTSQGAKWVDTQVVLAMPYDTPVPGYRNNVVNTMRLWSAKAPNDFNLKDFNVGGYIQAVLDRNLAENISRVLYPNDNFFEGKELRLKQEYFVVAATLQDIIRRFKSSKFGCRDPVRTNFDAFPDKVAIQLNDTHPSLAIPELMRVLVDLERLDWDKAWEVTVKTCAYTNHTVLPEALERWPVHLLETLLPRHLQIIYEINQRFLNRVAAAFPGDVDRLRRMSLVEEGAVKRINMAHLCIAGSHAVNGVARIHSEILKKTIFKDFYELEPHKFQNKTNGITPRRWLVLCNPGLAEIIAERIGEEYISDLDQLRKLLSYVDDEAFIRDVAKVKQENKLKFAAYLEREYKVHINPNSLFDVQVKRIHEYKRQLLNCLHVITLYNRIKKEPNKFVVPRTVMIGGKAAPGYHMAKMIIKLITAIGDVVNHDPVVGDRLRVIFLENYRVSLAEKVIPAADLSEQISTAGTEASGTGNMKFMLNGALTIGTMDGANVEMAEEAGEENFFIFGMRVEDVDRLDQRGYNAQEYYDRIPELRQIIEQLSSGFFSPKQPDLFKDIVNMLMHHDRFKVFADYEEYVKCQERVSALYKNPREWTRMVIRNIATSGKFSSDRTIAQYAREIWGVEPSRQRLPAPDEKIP
# Assay: enzyme kinetics in the direction of glycogen synthesis, RMGP isolated from rabbit skeletal muscle, […] AMP
# Format: biochemical
row,IC50 [µM],Structure (SMILES)
1,396 ± 10.8,"Nc1ncc([C@@H]2O[C@H](CO)[C@@H](O)[C@H](O)[C@H]2O)c(=O)[nH]1 [compound 5, 2-Amino-5-(β-D-glucopyranosyl)pyrimidin-4(3H)-one]"
2,5.4 ± 0.5,"O=c1[nH]c(Nc2ccc3[nH]c4ccccc4c(=O)c3c2)ncc1[C@@H]1O[C@H](CO)[C@@H](O)[C@H](O)[C@H]1O [compound 6, 2-[(Acridin-9(10H)-on-2-yl)amino]-5-(β-D-glucopyranosyl)pyrimidin-4(3H)-one]"
3,88.5 ± 4.3,"O=c1[nH]cc([C@@H]2O[C@H](CO)[C@@H](O)[C@H](O)[C@H]2O)c(=O)[nH]1 [compound 4, 5-(β-D-Glucopyranosyl)pyrimidin-2,4-dione]"
